Measurements: US20260256960A1
Several values for one entry are separate records, joined by “and”; a condition that tells them apart may be missing. Equal entries are not always repeated. Entries after “also recorded” stand apart in the source; their conditions may differ. Where two headings read alike, the source gives them in different places.

Columns and labels:
CX3CR1Cre^ERT.hM4di mice = experiment: Microglial Gi DREADD inhibition in CX3CR1Cre^ERT.hM4di mice given ethanol +/- CNO; type: in vivo, mouse; settings: ten days of ethanol +/- CNO
Method: For in vivo studies, heterozygous CX3CR1.Cre^ERT.hM4di were treated with tamoxifen (75 mg/kg/d, i.p.) for 5 days during adulthood (12 weeks of age).

HEBSC from 3×Tg-AD mice = experiment: Hippocampal-entorhinal brain slice culture (HEBSC) from 3×Tg-AD mice, lipid / Aβ / LysoTracker staining; type: cell-based, mouse; settings: for effect on ethanol-induced increase in cytosolic lipid / effect on ethanol-induced increase in intraneuronal Aβ: with ethanol
Method: HEBSC was performed using techniques routinely used in the laboratory^2,9,11 Briefly, sections were prepared from either the P7 or adult (6 mo) 3×-Tg-AD hippocampal-entorhinal cortex formation as described by Stoppini et al^16. […] Mice were decapitated, brains extracted and the hippocampal-entorhinal complex dissected in Gey's bugger (Sigma-Aldrich). Slices were cut transversely at 375 μm using a McIlwain tissue chopper and placed on Millicell culture inserts (Millipore, PICMORG50, up to 13 slices per insert). Slices acclimated in culture media (MEM plus 24 mM HEPES and Hank's salts, 25% horse serum, 5.5 g/L glucose, 2 mM L-glutamine) in a humified 5% CO2 incubator for seven days, followed by 12% horse serum for four days, and 6% horse serum until the completion of the experiments.

3×Tg-AD mice [1] = system: 3×Tg-AD mice
Text: mRNA was extracted from frozen cortex or hippocampus as reported^10. Briefly, samples were homogenized with Trizol (Invitrogen) and RNA was isolated by chloroform extraction, followed by reverse transcription as described previously 11. SYBR green PCR master mix (Applied Biosystems, Foster City, CA) was used for qRT-PCR analysis. Primer sequences were designed using the National Library of Medicine Primer-BLAST tool or were obtained from PrimerBank database (Table 1) 12-14. Only primers with no predicted non-specific targets and single peak melt curves were used. Genes of interest were normalized to the expression of the reference gene 18S using the cycle threshold (Ct) value of each target gene product. The ΔΔCt method was used to compare relative differences between control and treatment groups, and the ratio by 18S or the percent change relative to 18S were used in analysis.

3×Tg-AD mice [2] = system: 3×Tg-AD mice; remark: listed apart in the source
WT mice [3] = system: WT mice
3×Tg-AD mice [4] = system: 3×Tg-AD mice; remark: listed apart in the source
Method: (§1) Western blot was performed as reported previously^9,10. Brain tissue from the cerebral cortex was homogenized in lysis buffer (Tris-HCl, pH 7.5, Sucrose, EDTA, EGTA, 1% Triton X-100, protease, and phosphatase inhibitors). […] of protein were loaded into each lane on SDS polyacrylamide gels and were transferred to PVDF membranes. Membranes were washed in TBS and blocked for 1 hour at room temperature (Li-Cor Blocking Solution; 92760001) then were incubated overnight at 4° Celsius with primary antibodies (Table 1). Membranes were washed in TBS with 0.1% Tween-20 (Sigma-Aldrich, St. Louis, MO) then were incubated in the appropriate conjugated secondary antibody (Rockland H & L Pre-absorbed). Membranes were washed again in TBS and visualized using LiCor Image Studio Lite Ver 5.2. Western Blots were analyzed using Image Studio Lite software and each protein of interest was normalized to housekeeping protein GAPDH. […] The protein of interest was normalized to GAPDH for each sample and the percentage change relative to controls was calculated for each blot.

WT mice [5] = settings: WT cortex, 10-mo mice, ethanol 5 weeks
Method: as §1

[6] = 5 g/kg/d i.g., 20% ethanol w/v, at 1 hour; cited from earlier work
[7] = 3×Tg-AD cortex, listed as ethanol
[8] = HEBSC from adult 3×Tg-AD mice, ENT region

Molecule: C[N+]1([O-])CCN(C2=Nc3cc(Cl)ccc3Nc3ccccc32)CC1 [CNO]
- effect on ethanol-induced proinflammatory activation of microglia in ENT (IF) (CX3CR1Cre^ERT.hM4di mice): prevented
- effect on ethanol-induced increases in total and neuronal lipid (CX3CR1Cre^ERT.hM4di mice; ENT): prevented
- effect on ethanol-induced increase in cytosolic lipid (HEBSC from 3×Tg-AD mice; HEBSC from 3×Tg-AD mice): prevented

Molecule: CCO [Ethanol, ethanol]
- LAL (LIPA) gene expression (3×Tg-AD mice [1]; 3×Tg-AD): reduced
- effect on hMAPT expression, cortex or hippocampus (3×Tg-AD mice [1]; 3×Tg-AD): No effect
- effect on expression of human APP (hAPP) transgene, cortex (3×Tg-AD mice [1]; 3×Tg-AD cortex): no effect
- increase in hAPP expression, male hippocampus (3×Tg-AD mice [1]; 3×Tg-AD males, no change in females): 38%
- increase in TUNEL+ neurodegeneration in ENT (3×Tg-AD mice [2]; 3×Tg-AD): 2.5 fold and 3 fold
- increase in cytosolic lipid (LipidSpot), ENT (3×Tg-AD mice [2]; 3×Tg-AD): 88%
- increase in cytosolic lipid (LipidSpot), FCX (3×Tg-AD mice [2]; 3×Tg-AD): 38%
- increase in extra-lysosomal cytoplasmic Aβ, ENT (3×Tg-AD mice [2]; 3×Tg-AD): 1.9 fold
- increase in extra-lysosomal cytoplasmic Aβ, FCX (3×Tg-AD mice [2]; 3×Tg-AD): 1.8 fold
- increase in intraneuronal Aβ (IF), ENT (3×Tg-AD mice [2]; 3×Tg-AD): 59%
- increase in intraneuronal Aβ (IF), FCX (3×Tg-AD mice [2]; 3×Tg-AD): 52%
- increase in lipid within Aβ+ neurons, ENT (3×Tg-AD mice [2]; 3×Tg-AD): 2.2 fold
- increase in lipid within Aβ+ neurons, FCX (3×Tg-AD mice [2]; 3×Tg-AD): 75%
- increase in lysosomal lipid in Aβ+ neurons, ENT (3×Tg-AD mice [2]; 3×Tg-AD): 3.3 fold
- increase in lysosomal lipid in Aβ+ neurons, FCX (3×Tg-AD mice [2]; 3×Tg-AD): ~ 75% and 75%
- increase in lysosomes in Aβ+ neurons, FCX and ENT (3×Tg-AD mice [2]; 3×Tg-AD): 2 fold
- increase in p-tau181 in FCX (3×Tg-AD mice [2]; 3×Tg-AD): 40%
- increase in p-tau-181 in CA1 and FCX (3×Tg-AD mice [2]; 3×Tg-AD): 40%
- reduction in total LAL in ENT and SUB (3×Tg-AD mice [2]; 3×Tg-AD): ~50%
- increase in Aβ plaques, female subiculum, dorsal (3×Tg-AD mice [2]; 3×Tg-AD females): 91%
- increase in Aβ plaques, female subiculum, ventral (3×Tg-AD mice [2]; 3×Tg-AD females): 127%
- increase in amyloid plaques in SUB (3×Tg-AD mice [2]; 3×Tg-AD females): 2 fold
- Aβ1-42 in FCX (3×Tg-AD mice [2]; 3×Tg-AD, both sexes): increased
- increase in pathogenic intraneuronal Aβ1-42 in ENT, FCX and SUB (3×Tg-AD mice [2]; 3×Tg-AD, both sexes): 55-60%
- increase in microglial (Iba-1+) lipid (3×Tg-AD mice [2]; 3×Tg-AD, chronic ethanol): 2 fold and ~ 2 fold
- increase in LAMP1+ lysosomes in Aβ-containing neurons, FCX (3×Tg-AD mice [2]; 3×Tg-AD, ethanol-treated females): ~ 2 fold
- increase in intraneuronal Aβ1-42 in ENT (3×Tg-AD mice [2]; 3×Tg-AD, midlife ethanol vs control): 57%
- increase in cytosolic lipid (LipidSpot), ENT (3×Tg-AD mice [2]; 3×Tg-AD, listed as EtOH): 80%
- reduction of Aβ lysosomal:extra-lysosomal cytoplasmic (lyso:cyto) ratio, FCX and ENT (3×Tg-AD mice [2]; 3×Tg-AD, stated for ethanol and obesity together): ~ 20%
- increase in total Aβ in ENT (WT mice [3]; 5 weeks ethanol): 36%
- increase in lipid levels in ENT (WT mice [3]; chronic ethanol): 83%
- increase in lysosomal lipid in ENT (WT mice [3]; chronic ethanol): ~ 2 fold
- increase in lysosomal lipid in ENT (WT mice [3]; chronic ethanol, listed as ethanol): 2.5 fold
- increase of active p-Tyr216 GSK3β (3×Tg-AD mice [4]; 3×Tg-AD): 17%
- reduction of inactive pSer9 GSK3β (3×Tg-AD mice [4]; 3×Tg-AD): 15.6%
- effect on BACE1 levels (3×Tg-AD mice [4]; 3×Tg-AD cortex): no effect
- effect on PSEN1 levels (3×Tg-AD mice [4]; 3×Tg-AD cortex): no effect
- increase in LAMP1 protein (3×Tg-AD mice [4]; 3×Tg-AD cortex): 26%
- increase in LC3 (LC3-II) protein (3×Tg-AD mice [4]; 3×Tg-AD cortex): 20%
- increase in P62 protein (3×Tg-AD mice [4]; 3×Tg-AD cortex): 20%
- increase in p-mTOR (3×Tg-AD mice [4]; 3×Tg-AD cortex): ~ 2 fold
- reduction in Beclin-1 protein (3×Tg-AD mice [4]; 3×Tg-AD cortex): 14%
- reduction in LAL protein (3×Tg-AD mice [4]; 3×Tg-AD cortex): 19%
- reduction in TFEB protein (3×Tg-AD mice [4]; 3×Tg-AD cortex): 20%
- increase in p-mTOR (3×Tg-AD mice [4]; [7]): 2 fold
- reduction in Beclin-1 protein (3×Tg-AD mice [4]; [7]): 20%
- increase in LAMP1, females (WT mice [5]): ~ 33%
- reduction in Beclin-1 protein, females (trend, p=0.08) (WT mice [5]): 13%
- reduction in Beclin-1 protein, males (WT mice [5]): 12%
- reduction in LC3A/B (WT mice [5]): 12%
- increase in P62 protein, females (WT mice [5]; not altered in males): 33%
- peak blood alcohol concentration [6]: ~ 290 mg/dL and ~ 280 mg/dL
- increase in Aβ (HEBSC from 3×Tg-AD mice; HEBSC, ethanol): 2 fold
- increase in cytosolic lipid (HEBSC from 3×Tg-AD mice; HEBSC, ethanol): 2 fold
- reduction of lysosomal acidification (LysoTracker red) (HEBSC from 3×Tg-AD mice; ethanol 100 mM, 4 days): 50%

Molecule: O=C(Oc1nsnc1N1CCCCC1)N1CCCCC1 [LAListat]
- effect on cytosolic lipid levels (HEBSC from 3×Tg-AD mice; [8]): concentration-dependent increase; also recorded: dose-dependent increase
- effect on intraneuronal Aβ in ENT (HEBSC from 3×Tg-AD mice; [8]): concentration-dependent increase; also recorded: dose-dependent increase

Molecule: O=c1c(-c2ccc(O)cc2)coc2cc(O)cc(O)c12 [genistein]
- effect on ethanol-induced increase in cytosolic lipid (HEBSC from 3×Tg-AD mice; HEBSC from 3×Tg-AD mice): did not abolish; also recorded: did not reduce; also recorded: no effect

B1: rLAL: recombinant lysosomal acid lipase / sebelipase (protein, UniProt P38571 77-399, looked up)
Lysosomal acid …: GPKPVVFLQHGLLADSSNWVTNLANSSLGFILADAGFDVWMGNSRGNTWSRKHKTLSVSQDEFWAFSYDEMAKYDLPASINFILNKTGQEQVYYVGHSQGTTIGFIAFSQIPELAKRIKMFFALGPVASVAFCTSPMAKLGRLPDHLIKDLFGDKEFLPQSAFLKWLGTHVCTHVILKELCGNLCFLLCGFNERNLNMSRVDVYTTHSPAGTSVQNMLHWSQAVKFQKFQAFDWGSSAKNYFHYNQSYPPTYNVKDMLVPTAVWSGGHDWLADVYDVNILLTQITNLVFHESIPEWEHLDFIWGLDAPWRLYNKIINLMRKYQ
- reduction of baseline Aβ levels (HEBSC from 3×Tg-AD mice; HEBSC from 3×Tg-AD mice): 50%
- effect on ethanol-induced increase in cytosolic lipid (HEBSC from 3×Tg-AD mice; HEBSC from 3×Tg-AD mice): blocked
- effect on ethanol-induced increase in intraneuronal Aβ (HEBSC from 3×Tg-AD mice; HEBSC from 3×Tg-AD mice): abolished
- effect on ethanol-induced increase in intraneuronal Aβ (HEBSC from 3×Tg-AD mice; HEBSC from 3×Tg-AD mice, listed as Recombinant LAL): blocked
